Data reported in patent US4119710A, “Bronchospasmolytic 1-(p-amino-phenyl)-2-amino-ethanols-(1) and salts” (Boehringer Ingelheim GmbH, priority 1972, dated 1978).
Structures can show the parent of a compound that is named as a salt.

Experiments:
β2 -receptors = molecular target: T1, β2 -receptors (Cavia porcellus, UniProt Q8K4Z4); assay: β2-mimetic activity: antagonism to acetylcholine bronchospasm in anesthetized guinea pigs (Konzett-Rossler); type: in vivo; conditions: for ED50: guinea pig, iv, bronchospasm by 20 γ/kg acetylcholine i.v., test compound i.v., graphic extrapolation (Table I); for Duration of activity (β2 -mimetic activity): i.v. (Table I)
T1 construct: tested on anesthetized guinea pigs; from tissue; host or cells: living anesthetized guinea pig, airways (Konzett-Rossler)
Experimental: (§1) The compounds of this invention were tested for toxicity and with regard to their action on the β-receptors in warm-blooded animals, such as cats and guinea pigs, by the methods described below, and the following test results were obtained for representative species of the genus, where
The β2 -mimetic activity was tested on anesthetized guinea pigs as antagonism to bronchospasm provoked by intravenous administration of 20 γ of acetylcholine per kg body weight (according to the method of Konzett-Rossler) by intravenous administration of the test compound. From the average percentage decrease of the bronchospasm produced by various doses of the test compound, a median effective dose (ED50) was determined by graphic extrapolation (see Table I).

β1 -receptors = molecular target: T2, β1 -receptors (Felis catus, UniProt Q9TST6); assay: β1-blocking activity: antagonism to tachycardia provoked by N-isopropyl-noradrenalin sulfate in anesthetized cats; type: in vivo; conditions: cat, iv, tachycardia by 1.0 γ/kg i.v. N-isopropyl-noradrenalin sulfate, graphic extrapolation (Table II), read-out: Blocking action on the β1 -receptors ED50
T2 construct: tested on anesthetized cats; from tissue; host or cells: living anesthetized cat, heart (heart rate)
Experimental: as §1
The β1 -blocking activity was tested on anesthetized cats as antagonism to tachycardia provoked by a standard dose of 1.0 γ/kg i.v. of N-isopropyl-noradrenalin sulfate. From the average percentage reduction in heart rate acceleration caused by N-isopropyl-noradrenalin sulfate, obtained by various doses of the test compound in question, a median effective dose (ED50) was determined by graphic extrapolation (see Tables II and III).

[1] = acute toxicity in mice (LD50, Litchfield and Wilcoxon); conditions: mouse, in vivo, iv, groups of 10, i.v., deaths within 14 days (Table II), read-out: LD50
Experimental: as §1
The acute toxicity of the compounds was determined on groups of 10 mice.

T2 sequence (Q9TST6 whole entry): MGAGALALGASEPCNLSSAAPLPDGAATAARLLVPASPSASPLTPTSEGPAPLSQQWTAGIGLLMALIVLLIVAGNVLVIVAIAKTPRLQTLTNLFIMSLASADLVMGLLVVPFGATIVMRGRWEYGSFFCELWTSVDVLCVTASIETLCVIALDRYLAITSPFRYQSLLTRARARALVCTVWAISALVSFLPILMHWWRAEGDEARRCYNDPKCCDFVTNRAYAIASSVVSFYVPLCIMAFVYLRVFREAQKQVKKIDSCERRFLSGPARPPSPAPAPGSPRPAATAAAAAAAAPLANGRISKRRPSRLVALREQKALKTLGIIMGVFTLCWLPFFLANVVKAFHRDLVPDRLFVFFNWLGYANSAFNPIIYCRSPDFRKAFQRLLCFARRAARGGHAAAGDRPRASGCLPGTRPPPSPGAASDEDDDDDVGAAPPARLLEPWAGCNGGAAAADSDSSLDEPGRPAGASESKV
T1 sequence (Q8K4Z4 whole entry): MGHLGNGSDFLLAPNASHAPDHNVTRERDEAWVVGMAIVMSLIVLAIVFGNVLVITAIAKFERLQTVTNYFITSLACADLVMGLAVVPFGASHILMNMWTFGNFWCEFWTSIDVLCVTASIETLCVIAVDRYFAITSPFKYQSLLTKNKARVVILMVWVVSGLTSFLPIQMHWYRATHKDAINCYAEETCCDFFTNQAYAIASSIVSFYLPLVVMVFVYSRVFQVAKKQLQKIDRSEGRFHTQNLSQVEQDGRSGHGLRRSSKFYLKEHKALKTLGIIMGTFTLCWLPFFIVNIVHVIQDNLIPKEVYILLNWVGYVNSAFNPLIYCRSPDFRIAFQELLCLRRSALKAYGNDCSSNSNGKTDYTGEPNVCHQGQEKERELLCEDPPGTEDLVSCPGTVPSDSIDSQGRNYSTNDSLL

SMILES | ED50 (β2 -receptors) [mg/kg] | Duration of activity (β2 -mimetic activity) (β2 -receptors) [min] | ED50 (β1 -receptors) [mg/kg] | LD50 at 336 h [1] [mg/kg]
CC(C)(C)NCC(O)c1cc(F)c(N)c(Br)c1.Cl (stereo not shown) [A, 1-(4'-amino-3'-bromo-5'-fluoro-phenyl)-2-tert.butylamino-ethanol hydrochloride] | 0.0083 | > 150 | 0.0185 | 34.5
CC(C)(C)N1COC(c2cc(F)c(N)c(Br)c2)C1.Cl.Cl (stereo not shown) [B, 5-(4'-amino-3'-bromo-5'-fluoro-phenyl)-3-tert.butyloxazolidine dihydrochloride] | 0.0067 | > 110 |  | 27.2
Cl.Nc1c(F)cc(C(O)CNC2CC2)cc1Cl (stereo not shown) [C, 1-(4'-amino-3'-chloro-5'-fluoro-phenyl)-2-cyclopropylamino-ethanol hydrochloride] | 0.024 | > 50 | 0.014 | 57
CC(C)(C)NCC(O)c1cc(F)c(N)c(Cl)c1.Cl (stereo not shown) [D, 1-(4'-amino-3'-chloro-5'-fluoro-phenyl)-2-tert.butylamino-ethanol hydrochloride] | 0.019 | > 120 | 0.008 | 35.1
CC(C)(C)NCC(O)c1ccc(N)c(F)c1.Cl (stereo not shown) [E, 1-(4'-amino-3'-fluoro-phenyl)-2-tert.butylamino-ethanol hydrochloride] | 0.018 | > 80 | 0.0135 | 69.2
Br.CCC(C)(C)NCC(O)c1ccc(N)c(C(F)(F)F)c1 (stereo not shown) [F, 1-(4'-amino-3'-trifluoromethyl-phenyl)-2-tert.pentylamino-ethanol hydrobromide] |  |  | 0.035 | 
CC(C)(C)NCC(O)c1cc(Cl)c(N)c(C(F)(F)F)c1 (stereo not shown) [G, 1-(4'-amino-3'-chloro-5'-trifluoromethyl-phenyl)-2-tert.butylamino-ethanolhydrochloride] | 0.0195 | > 130 | 0.0115 | 36.5
Nc1c(Cl)cc(C(O)CNC2CCC2)cc1C(F)(F)F (stereo not shown) [H, 1-(4'-amino-3'-chloro-5'-trifluoromethyl-phenyl)-2-cyclobutylamino-ethanolhydrochloride] | 0.0068 | > 125 |  | 36.3
CC(C)(C)NCC(O)c1cc(Cl)c(N)c(C#N)c1 (stereo not shown) [I, 1-(4'-amino-3'-chloro-5'-cyano-phenyl)-2-tert.butylamino-ethanol] | 0.0002 | > 95 | 0.00074 | 60
CC(C)(C)NCC(O)c1cc(Br)c(N)c(C#N)c1.Cl (stereo not shown) [J, 1-(4'-amino-3'-bromo-5'-cyano-phenyl)-2-tert.butylamino-ethanol hydrochloride] | 0.0048 | > 40 |  | 67
Cl.Nc1c(F)cc(C(O)CNC2CCC2)cc1Br (stereo not shown) [K, 1-(4'-amino-3'-bromo-5'-fluoro-phenyl)-2-cyclobutylamino-ethanol hydrochloride] | 0.058 | > 50 | 0.0015 | 26.4
Cl.Nc1c(F)cc(C(O)CNC2CC2)cc1I (stereo not shown) [L, 1-(4'-amino-3'-fluoro-5'-iodo-phenyl)-2-cyclopropylamino-ethanol hydrochloride] |  |  | 0.0013 | 45.2
CC(C)NCC(O)c1cc(F)c(N)c(C#N)c1.Cl (stereo not shown) [M, 1-(4'-amino-3'-fluoro-5'-cyano-phenyl)-2-isopropylamino-ethanol hydrochloride] |  | > 40 | 0.00027 | 66.4
CC(C)(C)NCC(O)c1cc(F)c(N)c(C#N)c1.Cl (stereo not shown) [N, 1-(4'-amino-3'-fluoro-5'-cyano-phenyl)-2-tert.butylamino-ethanol hydrochloride] | 0.00032 | > 40 |  | 58.4
Br.N#Cc1cc(C(O)CNC2CCC2)ccc1N (stereo not shown) [O, 1-(4'-amino-3'-cyano-phenyl)-2-cyclobutylamino-ethanol hydrobromide] | 0.0069 | 40 |  | 61.8
CCC(C)(C)NCC(O)c1ccc(N)c(C#N)c1 (stereo not shown) [P, 1-(4'-amino-3'-cyano-phenyl)-2-tert.pentylamino-ethanol] | 0.0036 | 65 |  | 62
CCCNCC(O)c1cc(Cl)c(N)c(C#N)c1.Cl (stereo not shown) [Q, 1-(4'-amino-3'-chloro-5'-cyano-phenyl)-2-propylamino-ethanol hydrochloride] | 0.027 | 50 | 0.00076 | 53.4
CCC(C)NCC(O)c1cc(Cl)c(N)c(C#N)c1.Cl (stereo not shown) [R, 1-(4'-amino-3'-chloro-5'-cyano-phenyl)-2-sec.butylamino-ethanol hydrochloride] | 0.0057 | > 80 | 0.00032 | 40.4
CC(C)(CO)NCC(O)c1cc(Cl)c(N)c(C#N)c1 (stereo not shown) [S, 1-(4'-amino-3'-chloro-5'-cyano-phenyl)-2-(hydroxy-tert.butylamino)-ethanolhydrochloride] | 0.01 | > 65 | 0.00076 | 81.8
CCC(C)(C)NCC(O)c1cc(Cl)c(N)c(C#N)c1.Cl (stereo not shown) [T, 1-(4'-amino-3'-chloro-5'-cyano-phenyl)-2-tert.pentylamino-ethanol hydrochloride] | 0.0019 | > 40 | 0.00045 | 33.7
Cl.N#Cc1cc(C(O)CNC2CCCC2)cc(Cl)c1N (stereo not shown) [U, 1-(4'-amino-3'-chloro-5'-cyano-phenyl)-2-cyclopentylamino-ethanol hydrochloride] | 0.0098 | > 50 | 0.0007 | 39.1
CC(Cc1ccc2c(c1)OCO2)NCC(O)c1cc(Cl)c(N)c(C#N)c1 (stereo not shown) [V, 1-(4'-amino-3'-chloro-5'-cyano-phenyl)-2-[1"-(3,4-methylenedioxy-phenyl)-2"-propylamino]-ethanol hydrochloride] | 0.0027 | > 65 | 0.0014 | 13.5
Cl.N#Cc1cc(C(O)CNC2CCC2)cc(Br)c1N (stereo not shown) [W, 1-(4'-amino-3'-bromo-5'-cyano-phenyl)-2-cyclobutylamino-ethanol hydrochloride] | 0.0205 | > 50 |  | 38.5
CC(C)(C)NCC(O)c1cc(C#N)c(N)c(C#N)c1.Cl (stereo not shown) [X, 1-(4'-amino-3',5'-dicyano-phenyl)-2-tert.butylamino-ethanol hydrochloride] | 0.0113 | > 65 | 0.00092 | 166
CC(C)(C)NCC(O)c1cc(Br)c(N)c([N+](=O)[O-])c1 (stereo not shown) [Y, 1-(4'-amino-3'-bromo-5'-nitro-phenyl)-2-tert.butylamino-ethanol] |  |  | 0.0028 | 35.8
